These results are taken from US20200024234A1, “RADIOPHARMACEUTICAL COMPLEXES” (LUMIPHORE, INC., priority 2009, published 2020).

The conditions of data set [1]: in vivo; cited from earlier work.
For data set [2] the following is noted: cited from earlier work.
For data set [3] the following is noted: thorium(IV) complexes; cited from earlier work.
A short description of data set [4]: Gel electrophoresis mobility shift assay of complexation with metal cations. From the text:
LUMI4® is an isophthalamide class macrocyclic chelate that selectively coordinates to metal cations including those of the lanthanide series. For use in certain applications, such as acting as a bifunctional chelating agent to attach a radioisotope to a site-directing molecule, it is necessary that the chelate be able to coordinate to the metal ion of interest in a kinetically facile and thermodynamically stable manner. […] In this experiment, a conjugate of LUMI4® with a small (18 base length) DNA oligomer was treated with a solution containing a metal cation. The electrophoretic mobility of the conjugate on a polyacrylamide gel was then compared with that of the conjugate which was not exposed to the solution of metal cation. […] To provide an additional comparison, the gel electrophoretic mobility of the DNA oligomer that was not conjugated to LUMI4® was measured with and without exposure to the metal cation solution under identical conditions.
In particular, a solution of DNA oligomer (6 μL, 5 μM, all concentrations final) was mixed with a solution of metal cation (2 μL, 250 μM) or an equal volume of water. The solution was incubated at 55° C. for five minutes, whereupon the solutions were allowed to cool to ambient temperature and a solution of 50% formamide (7 μL) was added. The resulting solution was again heated to 55° C. for five minutes and then cooled to −20° C. briefly. […]

{NH2C3} = aminopropyl group attached via phosphodiester linkage

For the molecule `O=C(NCCCN(CCCCN(CCCNC(=O)c1cccc(=O)n1O)C(=O)c1cccc(=O)n1O)C(=O)c1cccc(=O)n1O)c1cccc(=O)n1O` [3,4,3-LI(1,2-HOPO)], in data set [1], the “toxicity at effective dosage” value was “acceptably low toxicity”. Besides, the effective dosage in data set [2] (in vivo) was 0.01 to 0.1 µmol/kg. Also, in data set [2] (injected ip or infiltrated into a wound), the “removal of Th(IV), Pu(IV) or Am(III) from the wound site and body compared with CaNa3-DTPA” value was “much more effective”. Also, the oral activity entry in data set [2] (oral) is reported as “useful oral activity”. Besides, the “removal of injected or inhaled Pu(IV) and Am(III) compared with CaNa3-DTPA” value in data set [2] (rodents, injected, infused or oral) was “removes more”.
For the molecule `O=C(O)CN(CCN(CC(=O)O)CC(=O)O)CCN(CC(=O)O)CC(=O)O` [DTPA], in data set [3], the “Log K1” value was 30.34.
With `NC(=O)CCCC(=O)NCCCCC1CN2CCNC(=O)c3cccc(c3O)C(=O)NCCN(CCNC(=O)c3cccc(c3O)C(=O)N1)CCN1CCNC(=O)c3cccc(c3O)C(=O)NCCN(CCNC(=O)c3cccc(c3O)C(=O)NCC1)CC2` (centres unmarked) [LUMI4®], the “stability of metal complex upon electrophoresis in the presence of the competing chelate EDTA” value in data set [4] (LUMI4 conjugated to a DNA oligomer) was “forms a stable complex”.
Consider “unmodified oligonucleotide: DNA 18-base oligonucleotide 5′-AAGGTCATCCATGACAAC-3′ (SEQ ID NO: 1) with 5′-aminopropyl group (DNA, 5' {NH2C3}, backbone not given here)”, for which, in data set [4] (20% polyacrylamide gel, 8 M urea, running buffer with 2 mM EDTA), the “gel mobility following treatment with the metal cation solution” value was “unaffected”.
